Measured values as given in ChEMBL document CHEMBL5338773, “First-in-Class Selective Inhibitors of the Lysine Acetyltransferase KAT8” (J Med Chem, 2023).
Calls of active or inactive are those of the source. The calls are words filed in the database; no cut-off is given here.

Tests used:
[1] = molecular target: Histone acetyltransferase p300 (Homo sapiens) (UniProt Q09472); experiment: Inhibition of recombinant human KAT3B (1287 to 1673 residues) using histone H3 peptide and [3H]-acetyl-coA as substrates at 200 uM incubated for 1 hrs by liquid scintillation counter analysis
[2] = molecular target: Histone acetyltransferase KAT2B (Homo sapiens) (UniProt Q92831); experiment: Inhibition of recombinant human KAT2B (492 to 658 residues) using histone H3 peptide and [3H]-acetyl-coA as substrates at 200 uM incubated for 1 hrs by liquid scintillation counter analysis
[3] = molecular target: T1, Histone acetyltransferase KAT8 (Homo sapiens) (UniProt Q9H7Z6); experiment: Inhibition of N-terminal 6His tagged KAT8 (173 to 458 residues) (unknown origin) expressed in Escherichia coli BL21(DE3) using biotinylated histone H4 peptide and [3H]Acetyl-CoA as substrates at 200 uM preincubated for 20 mins followed by substrate addition and measured after 4 hrs by MicroBeta microplate counter analysis; conditions: time 260.0 min
T1 sequence (whole entry): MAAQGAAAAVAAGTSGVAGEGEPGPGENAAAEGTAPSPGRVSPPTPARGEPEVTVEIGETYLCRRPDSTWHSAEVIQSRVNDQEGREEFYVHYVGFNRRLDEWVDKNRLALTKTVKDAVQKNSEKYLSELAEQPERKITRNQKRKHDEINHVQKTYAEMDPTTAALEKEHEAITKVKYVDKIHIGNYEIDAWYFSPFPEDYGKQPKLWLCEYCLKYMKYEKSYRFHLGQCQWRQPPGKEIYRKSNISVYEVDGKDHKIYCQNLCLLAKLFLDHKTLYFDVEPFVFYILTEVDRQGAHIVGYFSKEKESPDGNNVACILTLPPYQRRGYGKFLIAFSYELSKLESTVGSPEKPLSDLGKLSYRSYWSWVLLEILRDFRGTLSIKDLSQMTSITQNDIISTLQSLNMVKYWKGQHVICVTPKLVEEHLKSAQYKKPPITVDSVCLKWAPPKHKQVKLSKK

Homo sapiens [4] = species on record: Homo sapiens; experiment: Inhibition of human recombinant KDAC8 using Boc-Lys-(Ac)-AMC as substrate at 50 to 100 uM incubated for 45 mins by fluorescence microplate reader analysis; conditions: dose 50-100 µM
[5] = molecular target: T2, Protein deacetylase HDAC6 (Homo sapiens) (UniProt Q9UBN7); experiment: Inhibition of human recombinant KDAC6 using Boc-Lys-(Ac)-AMC as substrate at 50 to 100 uM incubated for 45 mins by fluorescence microplate reader analysis; conditions: dose 50-100 µM
T2 sequence (whole entry): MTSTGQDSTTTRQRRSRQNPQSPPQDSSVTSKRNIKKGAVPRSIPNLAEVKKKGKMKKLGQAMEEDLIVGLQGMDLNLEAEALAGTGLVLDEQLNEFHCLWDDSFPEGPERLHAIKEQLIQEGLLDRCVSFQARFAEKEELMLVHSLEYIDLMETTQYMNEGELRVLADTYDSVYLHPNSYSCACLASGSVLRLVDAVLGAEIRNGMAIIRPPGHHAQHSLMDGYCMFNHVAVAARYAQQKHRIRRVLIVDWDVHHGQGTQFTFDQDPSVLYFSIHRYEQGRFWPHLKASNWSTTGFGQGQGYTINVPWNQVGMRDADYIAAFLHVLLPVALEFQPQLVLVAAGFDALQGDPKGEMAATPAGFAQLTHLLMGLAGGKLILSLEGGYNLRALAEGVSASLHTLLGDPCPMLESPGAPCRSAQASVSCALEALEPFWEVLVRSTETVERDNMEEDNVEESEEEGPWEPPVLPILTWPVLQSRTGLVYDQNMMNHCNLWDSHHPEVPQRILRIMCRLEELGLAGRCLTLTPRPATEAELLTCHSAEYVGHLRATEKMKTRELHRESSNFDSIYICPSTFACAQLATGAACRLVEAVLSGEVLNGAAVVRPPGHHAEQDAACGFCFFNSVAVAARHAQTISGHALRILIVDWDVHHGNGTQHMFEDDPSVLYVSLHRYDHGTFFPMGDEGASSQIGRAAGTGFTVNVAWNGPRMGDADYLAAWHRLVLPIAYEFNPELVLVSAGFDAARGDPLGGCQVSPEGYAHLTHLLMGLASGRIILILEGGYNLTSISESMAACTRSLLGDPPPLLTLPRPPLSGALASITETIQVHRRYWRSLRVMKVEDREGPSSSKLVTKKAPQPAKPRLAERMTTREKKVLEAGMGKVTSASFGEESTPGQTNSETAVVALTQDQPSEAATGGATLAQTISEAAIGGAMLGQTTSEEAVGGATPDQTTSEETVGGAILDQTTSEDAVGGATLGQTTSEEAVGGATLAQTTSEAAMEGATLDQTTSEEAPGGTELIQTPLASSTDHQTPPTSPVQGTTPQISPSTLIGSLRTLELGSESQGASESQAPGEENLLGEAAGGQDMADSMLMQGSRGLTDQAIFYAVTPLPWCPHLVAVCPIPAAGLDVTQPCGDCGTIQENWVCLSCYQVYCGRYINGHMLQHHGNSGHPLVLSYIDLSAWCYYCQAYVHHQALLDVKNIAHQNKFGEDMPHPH

[6] = Inhibition of human recombinant KDAC8
[7] = molecular target: Histone deacetylase 3 (Homo sapiens) (UniProt O15379); experiment: Inhibition of human recombinant KDAC3 using Boc-Lys-(Ac)-AMC as substrate at 50 to 100 uM incubated for 45 mins by fluorescence microplate reader analysis; conditions: dose 50-100 µM
Homo sapiens [8] = species on record: Homo sapiens; experiment: Inhibition of human recombinant KDAC1 using Boc-Lys-(Ac)-AMC as substrate at 50 to 100 uM incubated for 45 mins by fluorescence microplate reader analysis; conditions: dose 50-100 µM
[9] = molecular target: Histone deacetylase 2 (Homo sapiens) (UniProt Q92769); experiment: Inhibition of human recombinant KDAC2 using Boc-Lys-(Ac)-AMC as substrate at 50 to 100 uM incubated for 45 mins by fluorescence microplate reader analysis; conditions: dose 50-100 µM
Chain of Histone deacetylase 2 (Homo sapiens) (Q92769 whole entry): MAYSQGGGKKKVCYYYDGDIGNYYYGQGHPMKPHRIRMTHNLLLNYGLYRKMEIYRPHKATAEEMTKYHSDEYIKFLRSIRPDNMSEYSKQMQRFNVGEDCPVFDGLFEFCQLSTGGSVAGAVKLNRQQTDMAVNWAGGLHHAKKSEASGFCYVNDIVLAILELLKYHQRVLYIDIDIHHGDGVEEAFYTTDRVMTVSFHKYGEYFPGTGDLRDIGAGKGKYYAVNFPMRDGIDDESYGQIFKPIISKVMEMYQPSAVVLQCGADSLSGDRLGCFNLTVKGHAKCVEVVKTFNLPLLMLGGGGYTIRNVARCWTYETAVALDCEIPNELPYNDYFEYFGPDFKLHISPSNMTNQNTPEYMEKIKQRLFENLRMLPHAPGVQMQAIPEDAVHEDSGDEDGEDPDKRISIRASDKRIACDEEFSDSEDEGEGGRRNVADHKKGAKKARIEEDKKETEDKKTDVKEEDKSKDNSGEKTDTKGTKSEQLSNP

Chain of Histone acetyltransferase p300 (Homo sapiens) (Q09472 whole entry, the tested form may be a part): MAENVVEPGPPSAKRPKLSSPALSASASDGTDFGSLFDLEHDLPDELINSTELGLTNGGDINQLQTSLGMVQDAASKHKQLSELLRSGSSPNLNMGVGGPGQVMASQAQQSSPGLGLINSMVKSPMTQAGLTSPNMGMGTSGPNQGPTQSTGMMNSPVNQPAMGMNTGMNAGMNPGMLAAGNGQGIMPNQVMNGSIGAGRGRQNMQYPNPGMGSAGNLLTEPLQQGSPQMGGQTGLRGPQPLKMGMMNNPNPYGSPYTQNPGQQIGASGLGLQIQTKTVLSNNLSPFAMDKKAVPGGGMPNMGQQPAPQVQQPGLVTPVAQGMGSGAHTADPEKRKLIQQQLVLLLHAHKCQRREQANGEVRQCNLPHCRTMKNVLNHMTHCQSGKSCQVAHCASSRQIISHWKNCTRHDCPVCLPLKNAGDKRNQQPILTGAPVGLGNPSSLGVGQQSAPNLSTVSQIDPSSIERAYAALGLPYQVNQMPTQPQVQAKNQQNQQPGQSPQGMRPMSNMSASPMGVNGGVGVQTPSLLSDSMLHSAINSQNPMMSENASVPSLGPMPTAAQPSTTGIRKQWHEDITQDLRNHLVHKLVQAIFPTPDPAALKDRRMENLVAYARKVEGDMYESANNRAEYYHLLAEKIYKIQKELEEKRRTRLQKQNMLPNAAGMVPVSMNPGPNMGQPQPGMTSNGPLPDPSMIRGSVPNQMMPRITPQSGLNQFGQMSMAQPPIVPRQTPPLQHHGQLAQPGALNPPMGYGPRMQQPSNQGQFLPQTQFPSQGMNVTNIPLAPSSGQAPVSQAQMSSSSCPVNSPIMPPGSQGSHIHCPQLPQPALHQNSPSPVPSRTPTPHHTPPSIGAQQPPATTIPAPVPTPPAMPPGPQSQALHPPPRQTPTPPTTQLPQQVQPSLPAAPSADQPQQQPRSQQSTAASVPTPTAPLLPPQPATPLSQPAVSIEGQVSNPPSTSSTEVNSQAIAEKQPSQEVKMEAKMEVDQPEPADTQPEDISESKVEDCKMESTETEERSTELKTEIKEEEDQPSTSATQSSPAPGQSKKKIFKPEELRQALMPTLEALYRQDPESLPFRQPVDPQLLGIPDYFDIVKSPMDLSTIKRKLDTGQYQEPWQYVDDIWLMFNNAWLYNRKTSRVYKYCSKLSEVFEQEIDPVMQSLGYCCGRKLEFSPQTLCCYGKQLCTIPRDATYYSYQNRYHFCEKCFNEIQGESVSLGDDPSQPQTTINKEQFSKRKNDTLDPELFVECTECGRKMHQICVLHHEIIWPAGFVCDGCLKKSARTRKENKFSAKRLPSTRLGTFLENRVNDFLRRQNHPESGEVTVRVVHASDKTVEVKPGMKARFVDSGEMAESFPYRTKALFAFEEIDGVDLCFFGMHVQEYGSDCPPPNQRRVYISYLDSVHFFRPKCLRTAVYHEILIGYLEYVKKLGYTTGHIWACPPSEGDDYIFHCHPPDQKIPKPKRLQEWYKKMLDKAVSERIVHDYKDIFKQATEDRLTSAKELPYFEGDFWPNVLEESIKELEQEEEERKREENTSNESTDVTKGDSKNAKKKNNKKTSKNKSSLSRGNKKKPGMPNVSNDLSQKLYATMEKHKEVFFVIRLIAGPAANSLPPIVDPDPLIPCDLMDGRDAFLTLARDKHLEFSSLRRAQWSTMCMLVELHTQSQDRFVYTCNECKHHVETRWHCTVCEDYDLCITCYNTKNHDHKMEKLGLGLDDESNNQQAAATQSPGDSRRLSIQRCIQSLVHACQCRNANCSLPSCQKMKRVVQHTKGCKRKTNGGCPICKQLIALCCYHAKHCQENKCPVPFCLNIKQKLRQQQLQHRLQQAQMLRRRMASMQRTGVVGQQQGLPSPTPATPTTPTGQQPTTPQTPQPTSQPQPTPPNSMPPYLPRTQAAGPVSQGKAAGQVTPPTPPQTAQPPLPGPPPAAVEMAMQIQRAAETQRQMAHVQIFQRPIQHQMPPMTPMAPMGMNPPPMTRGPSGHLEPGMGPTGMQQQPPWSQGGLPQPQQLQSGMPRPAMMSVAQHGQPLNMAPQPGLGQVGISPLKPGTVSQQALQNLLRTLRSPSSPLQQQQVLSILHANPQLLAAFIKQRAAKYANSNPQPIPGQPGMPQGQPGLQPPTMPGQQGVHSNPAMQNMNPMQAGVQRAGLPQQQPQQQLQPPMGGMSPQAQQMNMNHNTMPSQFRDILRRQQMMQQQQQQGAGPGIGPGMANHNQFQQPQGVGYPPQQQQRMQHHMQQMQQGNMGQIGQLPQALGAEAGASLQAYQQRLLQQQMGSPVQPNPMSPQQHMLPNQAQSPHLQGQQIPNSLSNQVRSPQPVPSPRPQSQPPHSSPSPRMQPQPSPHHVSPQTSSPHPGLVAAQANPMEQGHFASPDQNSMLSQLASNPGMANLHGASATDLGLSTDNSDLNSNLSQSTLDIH
Chain of Histone acetyltransferase KAT2B (Homo sapiens) (Q92831 whole entry, looked up, the tested form may be a part): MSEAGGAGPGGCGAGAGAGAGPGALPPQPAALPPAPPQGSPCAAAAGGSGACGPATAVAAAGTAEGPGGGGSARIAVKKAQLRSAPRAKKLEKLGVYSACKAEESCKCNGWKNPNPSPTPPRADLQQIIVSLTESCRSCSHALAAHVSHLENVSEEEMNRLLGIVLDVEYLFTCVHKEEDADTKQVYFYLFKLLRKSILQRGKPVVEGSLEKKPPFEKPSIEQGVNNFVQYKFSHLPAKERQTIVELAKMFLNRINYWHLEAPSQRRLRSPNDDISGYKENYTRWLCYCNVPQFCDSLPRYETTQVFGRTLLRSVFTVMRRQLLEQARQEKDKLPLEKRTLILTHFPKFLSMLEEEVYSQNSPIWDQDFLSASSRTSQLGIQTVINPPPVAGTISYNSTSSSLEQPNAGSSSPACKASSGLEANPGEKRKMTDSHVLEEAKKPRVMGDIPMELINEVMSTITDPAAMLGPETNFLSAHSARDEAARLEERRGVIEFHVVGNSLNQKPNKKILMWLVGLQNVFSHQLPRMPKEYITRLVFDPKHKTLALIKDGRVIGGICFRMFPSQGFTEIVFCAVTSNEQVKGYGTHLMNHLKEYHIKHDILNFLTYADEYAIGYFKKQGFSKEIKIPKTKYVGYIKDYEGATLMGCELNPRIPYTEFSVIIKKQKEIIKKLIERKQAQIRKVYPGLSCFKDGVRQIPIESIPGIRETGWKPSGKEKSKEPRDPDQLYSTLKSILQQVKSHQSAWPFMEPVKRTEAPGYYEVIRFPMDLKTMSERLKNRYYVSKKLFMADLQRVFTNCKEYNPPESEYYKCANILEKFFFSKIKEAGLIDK
Chain of Histone deacetylase 3 (Homo sapiens) (O15379 whole entry): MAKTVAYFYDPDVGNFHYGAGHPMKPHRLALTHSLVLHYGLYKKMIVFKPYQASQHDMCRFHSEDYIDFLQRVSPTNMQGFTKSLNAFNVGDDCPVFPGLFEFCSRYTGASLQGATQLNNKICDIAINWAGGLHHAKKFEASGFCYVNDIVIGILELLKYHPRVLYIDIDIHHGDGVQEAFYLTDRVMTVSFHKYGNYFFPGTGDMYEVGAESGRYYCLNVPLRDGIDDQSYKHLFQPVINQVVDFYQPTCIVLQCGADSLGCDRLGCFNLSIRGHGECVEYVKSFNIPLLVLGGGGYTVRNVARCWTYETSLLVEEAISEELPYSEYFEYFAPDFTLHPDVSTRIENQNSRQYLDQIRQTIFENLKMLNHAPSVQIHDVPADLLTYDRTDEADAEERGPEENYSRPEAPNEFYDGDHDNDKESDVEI

Compound	inhibition [1]	inhibition [2]	also measured
CC1=NN(c2ccc(C(=O)O)cc2)C(=O)/C1=C\c1cc(C(=O)c2ccc(Cl)cc2)c[nH]1	–	–	inhibition [3]: inactive
CC1=NN(c2ccccc2)C(=O)/C1=C\c1cc(C(=O)c2ccccc2[N+](=O)[O-])c[nH]1	–	–	inhibition [3]: inactive
CC1=NN(c2ccc(C(=O)O)cc2)C(=O)/C1=C\c1ccc(-c2cc(C)c(C)cc2[N+](=O)[O-])o1	–	inactive	inhibition (Homo sapiens [4]): Active; inhibition [3]: inactive; inhibition [5]: Active; IC50 [6]: 7 µM; inhibition [7]: Active; inhibition (Homo sapiens [8]): Active; inhibition [9]: Active
CC1=NN(c2ccc(C(=O)O)cc2)C(=O)/C1=C\c1cc(C(=O)c2ccc([N+](=O)[O-])cc2)c[nH]1	–	–	inhibition [3]: inactive
CCCCCCCc1ccc(CCc2cccc(O)c2C(=O)O)cc1	–	inactive	–
CC1=NN(c2ccc(C(=O)O)cc2)C(=O)/C1=C\c1cc(C(=O)c2ccccc2O)c[nH]1	–	–	inhibition [3]: inactive
CC1=NN(c2ccc(C(=O)NCc3ccccc3)cc2)C(=O)/C1=C\c1ccc[nH]1	inactive	inactive	inhibition [3]: inactive
CC1=NN(c2ccccc2)C(=O)/C1=C\c1cc(C(=O)c2ccccc2)c[nH]1	–	–	inhibition [3]: inactive
Cc1nn(-c2ccc(C(=O)O)cc2)c(O)c1Cc1ccccc1	inactive	inactive	–
CC1=NN(c2ccc(C(=O)O)cc2)C(=O)/C1=C\c1cc(C(=O)c2ccccc2[N+](=O)[O-])c[nH]1	–	inactive	–
CC1=NN(c2ccc(C(=O)NCCCN3CCCC3)cc2)C(=O)/C1=C\c1ccc[nH]1	–	–	inhibition [3]: inactive
CC1=NN(c2ccc(C(=O)O)cc2)C(=O)C1	–	–	inhibition [3]: inactive
Cc1nn(-c2ccc(C(=O)O)cc2)c(O)c1Cc1ccc[nH]1	inactive	inactive	–
O=C(O)c1ccc(N2N=C(Cc3ccccc3)/C(=C/c3ccc[nH]3)C2=O)cc1	inactive	inactive	–

The next lines start with results.

inhibition [1]	inhibition [2]	Compound	also measured
inactive	inactive	CC1=NN(c2ccc(C(=O)O)cc2)C(=O)/C1=C\c1ccn[nH]1	–
–	inactive	CC1=NN(c2ccc(C(=O)O)cc2)C(=O)/C1=C\c1cc(C(=O)c2ccccc2C)c[nH]1	–
inactive	inactive	CC1=NN(c2ccc(C(=O)O)cc2)C(=O)/C1=C(/C)c1ccc[nH]1	–
–	inactive	CC1=NN(c2ccc(C(=O)O)cc2)C(=O)/C1=C\c1cccn1-c1ccccc1	–
–	inactive	CC1=NN(c2ccc(C(=O)O)cc2)C(=O)/C1=C\c1c[nH]c2ccccc12	–
inactive	inactive	CC1=NN(c2ccc(C(N)=O)cc2)C(=O)/C1=C\c1ccc[nH]1	–
inactive	inactive	CC(C)C1=NN(c2ccc(C(=O)O)cc2)C(=O)/C1=C\c1ccc[nH]1	–
inactive	inactive	CC1=NN(c2ccc(C(=O)O)cc2)C(=O)/C1=C\c1ccccc1	–
–	inactive	CC1=NN(c2ccc(C(=O)O)cc2)C(=O)/C1=C\c1cc(C(=O)c2ccccc2)c[nH]1	–
inactive	inactive	CC1=NN(c2ccc(C(=O)O)cc2)C(=O)/C1=C\c1cc[nH]c1	–
–	inactive	CC1=NN(c2ccc(C(=O)O)cc2)C(=O)/C1=C\c1cccn1C	–
–	inactive	CC1=NN(c2ccc(C(=O)O)cc2)C(=O)/C1=C\c1cccs1	–
–	inactive	CC1=NN(c2ccc(C(=O)O)cc2)C(=O)/C1=C\c1cc(C(=O)c2ccccc2Cl)c[nH]1	–
–	inactive	CC1=NN(c2ccc(C(=O)O)cc2)C(=O)/C1=C\c1c[nH]cn1	–
–	inactive	CC1=NN(c2ccc(C(=O)O)cc2)C(=O)C1=Cc1ccco1 (mixture of isomers)	–
inactive	inactive	CC1=NN(c2cccc(C(=O)O)c2)C(=O)/C1=C\c1ccc[nH]1	–
inactive	inactive	CC1=NN(c2ccc(C(=O)N(C)C)cc2)C(=O)/C1=C\c1ccc[nH]1	–
–	inactive	CC1=NN(c2ccc(C(=O)O)cc2)C(=O)/C1=C\c1cc2ccccc2[nH]1	–
